Patent US20050124498A1, “Halobenzyl substituted phenylaceto esters and amides and use thereof for prevention of harmful organisms” (priority 2002, published 2005)

What was measured:
[1] = tested on: Erysiphe graminis f.sp. hordei; experiment: Erysiphe test (barley)/protective; assay type: in vivo; conditions: Blumeria graminis, 168 h, protective, application rate 500 g/ha, evaluation 7 days after inoculation, read-out: efficacy
Description: Erysiphe test (barley)/protective [table] To produce a suitable preparation of active compound, 1 part by weight of active compound is mixed with the stated amounts of solvent and emulsifier, and the concentrate is diluted with water to the desired concentration. To test for protective activity, young plants are sprayed with the preparation of active compound at the stated application rate. After the spray coating has dried on, the plants are dusted with spores of Erysiphe graminis f.sp. hordei. The plants are placed in a greenhouse at a temperature of about 20° C. and a relative atmospheric humidity of about 80% to promote the development of mildew pustules.

[2] = tested on: apple mildew pathogen Podosphaera leucotricha; experiment: Podosphaera test (apple)/protective; assay type: in vivo; conditions: 240 h, protective, application rate 100 g/ha, evaluation 10 days after inoculation, read-out: efficacy
Description: (§1) Podosphaera test (apple)/protective [table] To produce a suitable preparation of active compound, 1 part by weight of active compound is mixed with the stated amounts of solvent and emulsifier, and the concentrate is diluted with water to the desired concentration. To test for protective activity, young plants are sprayed with the preparation of active compound at the stated application rate. After the spray coating has dried on, the plants are inoculated with an aqueous spore suspension of the apple mildew pathogen Podosphaera leucotricha. The plants are then placed in a greenhouse at about 23° C. and about 70% relative atmospheric humidity.

Sphaerotheca fuliginea = experiment: Sphaerotheca test (cucumber)/protective; assay type: in vivo; conditions: Podosphaera fuliginea, 168 h, protective, application rate 100 g/ha, evaluation 7 days after inoculation, read-out: efficacy
Description: as §1, with “Sphaerotheca” for “Podosphaera”, “(cucumber)/protective” for “(apple)/protective”, “Sphaerotheca fuliginea.” for “the apple mildew pathogen Podosphaera leucotricha.”

[3] = tested on: apple scab pathogen Venturia inaequalis; experiment: Venturia test (apple)/protective; assay type: in vivo; conditions: 240 h, protective, application rate 100 g/ha, evaluation 10 days after inoculation, read-out: efficacy
Description: Venturia test (apple)/protective […] To produce a suitable preparation of active compound, 1 part by weight of active compound is mixed with the stated amounts of solvent and emulsifier, and the concentrate is diluted with water to the desired concentration. To test for protective activity, young plants are sprayed with the preparation of active compound at the stated application rate. After the spray coating has dried on, the plants are inoculated with an aqueous conidia suspension of the apple scab pathogen Venturia inaequalis and then remain in an incubation cabin at about 20° C. and 100% relative atmospheric humidity for 1 day. The plants are then placed in a greenhouse at about 21° C. and a relative atmospheric humidity of about 90%.

Phytophthora infestans = experiment: whole plant or invertebrate; assay type: in vivo; conditions: in Solanum lycopersicum, 72 h, read-out: efficacy

CNC(=O)/C(=N\OC)c1c(F)cccc1Oc1ccccc1 [Example 41]
pest or weed control at 500 g/ha [1]: ≥ 98%
chromatographic logP (physchem; logP): 2.49

CNC(=O)/C(=N/OC)c1ccc(F)cc1O [Example (II-4), 2-(4-fluoro-2-hydroxyphenyl)-2-methoxyimino-N-methylacetamide]
chromatographic logP (physchem; pH 2, log P (pH 2)): 1.56

COC(=O)C(=O)c1ccc(F)cc1O [Example (XIV-1), methyl (4-fluoro-2-hydroxyphenyl)oxo-acetate]
chromatographic logP (physchem; pH 2, log P (pH 2)): 2.1

CNC(=O)/C(=N/OC)c1ccc(F)cc1Oc1ncnc(Oc2cc(C)ccc2Cl)c1F [Example 25]
chromatographic logP (physchem; logP): 3.45

CNC(=O)/C(=N/OC)c1ccc(F)cc1Oc1ncnc(Oc2cccc(Cl)c2)c1F [Example 21]
chromatographic logP (physchem; logP): 3.31

CNC(=O)/C(=N/OC)c1ccc(F)cc1Oc1ncnc(Oc2ccc(F)cc2Cl)c1F [Example 26]
chromatographic logP (physchem; logP): 3.27

CNC(=O)/C(=N/OC)c1ccc(F)cc1Oc1ncnc(Oc2cccc(OC(F)(F)F)c2)c1F [Example 36]
chromatographic logP (physchem; logP): 3.46

CNC(=O)/C(=N/OC)c1ccc(F)cc1Oc1ncnc(Oc2ccccc2OC(F)(F)F)c1F [Example 35]
pest or weed control at 100 g/ha [2]: ≥ 82%
pest or weed control at 100 g/ha (Sphaerotheca fuliginea): ≥ 98%
pest or weed control at 100 g/ha [3]: ≥ 97%
chromatographic logP (physchem; logP): 3.27

COC(=O)C(=O)c1c(C)cccc1F [Example (XIX-1), methyl (2-fluoro-6-methylphenyl)oxoacetate]
chromatographic logP (physchem; pH 2, log P (pH 2)): 2.44

CNC(=O)/C(=N/OC)c1ccc(F)cc1Oc1ncnc(Oc2ccccc2Cl)c1F [Example 7, N-methyl-2-{2-[6-(2-chlorophenoxy)-5-fluoropyrimidin-4-yloxy]-4-fluorophenyl}-2-methoxyiminoacetamide]
pest or weed control at 100 g/ha (Phytophthora infestans): ≥ 86%
pest or weed control at 100 g/ha (Sphaerotheca fuliginea): ≥ 98%
pest or weed control at 100 g/ha [3]: ≥ 97%
chromatographic logP (physchem; pH 2, log P (pH 2)): 3.14

CNC(=O)/C(=N/OC)c1ccc(F)cc1Oc1ncnc(Oc2ccccc2C)c1F [Example 15]
pest or weed control at 100 g/ha (Phytophthora infestans): ≥ 86%
pest or weed control at 100 g/ha [2]: ≥ 82%
pest or weed control at 100 g/ha (Sphaerotheca fuliginea): ≥ 98%
pest or weed control at 100 g/ha [3]: ≥ 97%
chromatographic logP (physchem; logP): 3.2

CNC(=O)/C(=N/OC)c1ccc(F)cc1Oc1ncnc(Oc2ccc(OC)cc2Cl)c1F [Example 29]
chromatographic logP (physchem; logP): 3.2

CNC(=O)/C(=N/OC)c1c(F)cccc1CO/N=C(C)/C(=N\OC)c1ccc(C)cc1 [Example 58]
chromatographic logP (physchem; logP): 3.71

COC(=O)C(=O)c1c(F)cccc1OC1CCCCO1 (stereo not shown) [Example (XIII-1), methyl [2-fluoro-6-(tetrahydropyran-2-yloxy)phenyl]oxoacetate]
chromatographic logP (physchem; pH 2, log P (pH 2)): 2.78

CNC(=O)/C(=N/OC)c1ccc(F)cc1Oc1ncnc(Oc2cccc(C(F)(F)F)c2)c1F [Example 30]
chromatographic logP (physchem; logP): 3.46

CNC(=O)/C(=N/OC)c1ccc(F)cc1Oc1nc(C)c(Cl)c(OCC(F)(F)C(F)(F)F)n1 [Example 13]
chromatographic logP (physchem; logP): 3.58

CO/N=C(/C(=O)OC)c1c(O)cccc1F [Example (II-1), methyl (2-fluoro-6-hydroxyphenyl)methoxyiminoacetate]
chromatographic logP (physchem; pH 2, log P (pH 2)): 1.67

CO/N=C(\C(C)=N\OCc1cccc(F)c1/C(=N\OC)C(=O)OC)c1ccc(F)cc1F [Example 54]
chromatographic logP (physchem; logP): 4.13

CNC(=O)/C(=N/OC)c1c(F)cccc1CO/N=C(C)/C(=N\OC)c1ccc(F)cc1F [Example 55]
chromatographic logP (physchem; logP): 3.57

CNC(=O)/C(=N/OC)c1ccc(F)cc1Oc1nccc(OCC(F)(F)C(F)(F)F)n1 [Example 40]
pest or weed control at 500 g/ha [1]: ≥ 98%
chromatographic logP (physchem; logP): 2.87

CNC(=O)/C(=N/OC)c1ccc(F)cc1Oc1ncnc(Oc2ccccc2SC)c1F [Example 23]
chromatographic logP (physchem; logP): 3.07

CO/N=C(/C(=O)OC)c1ccc(F)cc1O [Example (II-3), methyl (4-fluoro-2-hydroxyphenyl)methoxyiminoacetate]
chromatographic logP (physchem; pH 2, log P (pH 2)): 2.62

CNC(=O)/C(=N/OC)c1c(F)cccc1COc1ccccc1C [Example 9, N-methyl-2-(2-fluoro-6-o-tolyloxymethylphenyl)-2-methoxyiminoacetamide]
pest or weed control at 100 g/ha (Phytophthora infestans): ≥ 86%
pest or weed control at 100 g/ha [2]: ≥ 82%
pest or weed control at 100 g/ha (Sphaerotheca fuliginea): ≥ 98%
pest or weed control at 100 g/ha [3]: ≥ 97%
chromatographic logP (physchem; pH 2, log P (pH 2)): 3.03

CNC(=O)/C(=N/OC)c1ccc(F)cc1Oc1ncnc(Oc2ccc(SC(F)(F)F)cc2)c1F [Example 39]
chromatographic logP (physchem; logP): 3.75

CNC(=O)/C(=N/OC)c1c(F)cccc1CO/N=C(C)/C(=N\OC)c1ccc(F)cc1 [Example 59]
chromatographic logP (physchem; logP): 3.5

CNC(=O)/C(=N/OC)c1ccc(F)cc1Oc1ncnc(Oc2cccc(F)c2)c1F [Example 17]
chromatographic logP (physchem; logP): 3.07

CNC(=O)/C(=N/OC)c1c(O)cccc1F [Example (II-2), 2-(2-fluoro-6-hydroxyphenyl)-2-methoxyimino-N-methylacetamide]
chromatographic logP (physchem; pH 2, log P (pH 2)): 1.18

CNC(=O)/C(=N/OC)c1ccc(F)cc1Oc1ncnc(Oc2cccc(OC)c2)c1F [Example 19]
chromatographic logP (physchem; logP): 2.91

CNC(=O)/C(=N/OC)c1ccc(F)cc1Oc1ncnc(Oc2ccc(OC(F)(F)F)cc2C)c1F [Example 38]
chromatographic logP (physchem; logP): 3.71

CNC(=O)/C(=N/OC)c1ccc(F)cc1Oc1ncnc(Oc2ccc(SC)cc2)c1F [Example 24]
chromatographic logP (physchem; logP): 3.24

CNC(=O)/C(=N/OC)c1ccc(F)cc1Oc1ncnc(Oc2ccc(SC)c(C)c2)c1F [Example 28]
chromatographic logP (physchem; logP): 3.54

CNC(=O)/C(=N/OC)c1ccc(F)cc1Oc1ncnc(Oc2ccc(C(F)(F)F)cc2)c1F [Example 32]
chromatographic logP (physchem; logP): 3.49

CNC(=O)/C(=N/OC)c1ccc(F)cc1Oc1ncnc(Oc2ccccc2C#N)c1F [Example 11]
chromatographic logP (physchem; logP): 2.68

CNC(=O)/C(=N/OC)c1ccc(F)cc1Oc1ncnc(Oc2ccccc2Br)c1F [Example 34]
chromatographic logP (physchem; logP): 3.22

CO/N=C(/C(=O)OC)c1c(F)cccc1Oc1cc(C(F)(F)F)ncn1 [Example 53]
chromatographic logP (physchem; logP): 2.91

CNC(=O)/C(=N/OC)c1ccc(F)cc1Oc1ncnc(Oc2ccccc2OC(C)C)c1F [Example 27]
chromatographic logP (physchem; logP): 3.32

CO/N=C(/C(=O)OC)c1c(F)cccc1Oc1ccccc1 [Example 3, methyl (2-fluoro-6-phenoxyphenyl)methoxyiminoacetate]
pest or weed control at 500 g/ha [1]: ≥ 98%
chromatographic logP (physchem; pH 2, log P (pH 2)): 3.24

CO/N=C(\C(=O)OC)c1c(F)cccc1Oc1ncnc(Oc2cccc(Cl)c2C)c1F [Example 42]
pest or weed control at 500 g/ha [1]: ≥ 98%
chromatographic logP (physchem; logP): 4.41

CNC(=O)/C(=N/OC)c1ccc(F)cc1Oc1ncnc(Oc2ccccc2OC)c1F [Example 20]
chromatographic logP (physchem; logP): 2.82

CNC(=O)/C(=N/OC)c1ccc(F)cc1Oc1ncnc(Oc2cccc(C#N)c2)c1F [Example 18]
chromatographic logP (physchem; logP): 2.71

CO/N=C(/C(=O)OC)c1c(C)cccc1F [Example (XVIII-1), methyl (2-fluoro-6-methylphenyl)methoxyiminoacetate]
chromatographic logP (physchem; pH 2, log P (pH 2)): 2.43

CNC(=O)/C(=N/OC)c1c(F)cccc1CO/N=C1\CCc2ccc(OC)cc21 [Example 52]
chromatographic logP (physchem; logP): 3.08

CO/N=C(/C(=O)OC)c1c(F)cccc1CO/N=C1\CCc2ccc(OC)cc21 [Example 49]
chromatographic logP (physchem; logP): 3.65

CNC(=O)/C(=N/OC)c1ccc(F)cc1Oc1ncnc(Oc2ccc(Br)cc2C)c1F [Example 37]
chromatographic logP (physchem; logP): 3.57

CNC(=O)/C(=N/OC)c1ccc(F)cc1Oc1ncnc(Oc2cccc(Cl)c2Cl)c1F [Example 33]
pest or weed control at 100 g/ha (Phytophthora infestans): ≥ 86%
pest or weed control at 100 g/ha [2]: ≥ 82%
pest or weed control at 100 g/ha (Sphaerotheca fuliginea): ≥ 98%
pest or weed control at 100 g/ha [3]: ≥ 97%
chromatographic logP (physchem; logP): 3.53
